Measurements from the supplement of paper PMC5908809.

Legend:
NK-YS (IL-2 2.5 ng/mL) [1] = test: percent inhibition of viability; higher = more inhibition; settings: 72 h
[2] = system: normal primary NK cells, pool 1 (3 donors) (IL-2 2.5 ng/mL); test: as above; settings: 72 h
[3] = system: normal primary NK cells, pool 3 (3 donors) (IL-2 2.5 ng/mL); test: as above; settings: 72 h
NKL (IL-2 2.5 ng/mL) [4] = test: as above; settings: 72 h
DERL-7 (IL-2 2.5 ng/mL) [5] = test: as above; settings: 72 h
IMC-1 (IL-2 20 ng/mL) [6] = test: as above; settings: 72 h
[7] = system: normal primary NK cells, pool 2 (3 donors) (IL-2 2.5 ng/mL); test: as above; settings: 72 h
KAI3 (IL-2 2.5 ng/mL) [8] = test: as above; settings: 72 h
[9] = system: normal primary NK cells, pool 1 (3 donors), resting (IL-2 0 ng/mL); test: as above; settings: 72 h
YT (IL-2 2.5 ng/mL) [10] = test: as above; settings: 72 h
NK-92 (IL-2 2.5 ng/mL) [11] = test: as above; settings: 72 h
SNK-6 (IL-2 2.5 ng/mL) [12] = test: as above; settings: 72 h
KHYG-1 (IL-2 2.5 ng/mL) [13] = test: as above; settings: 72 h
[14] = system: normal NK cells expanded with K562-aAPC; test: drug sensitivity score (DSS) (DSS units); higher = more sensitive; extreme values may be limits of the assay; settings: 72 h; IL-2 2.5 ng/mL
Protocol: (§1)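 Drug sensitivity and resistance testing on K562-aAPC-expanded normal NK cells: 5 concentrations (10-fold steps over a 10,000-fold range), 72 h at 37 °C, viability by CellTiter-Glo normalised to DMSO and benzethonium chloride controls; DSS from the fitted curve.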

NK-YS (IL-2 2.5 ng/mL) [15] = test: as above; settings: 72 h
[16] = system: normal primary NK cells, pool 1 (3 donors) (IL-2 2.5 ng/mL); test: as above; settings: 72 h
[17] = system: normal primary NK cells, pool 3 (3 donors) (IL-2 2.5 ng/mL); test: as above; settings: 72 h
NKL (IL-2 2.5 ng/mL) [18] = test: as above; settings: 72 h
DERL-7 (IL-2 2.5 ng/mL) [19] = test: as above; settings: 72 h
IMC-1 (IL-2 20 ng/mL) [20] = test: as above; settings: 72 h
[21] = system: normal primary NK cells, pool 2 (3 donors) (IL-2 2.5 ng/mL); test: as above; settings: 72 h
KAI3 (IL-2 2.5 ng/mL) [22] = test: as above; settings: 72 h
[23] = system: normal primary NK cells, pool 1 (3 donors), resting (IL-2 0 ng/mL); test: as above; settings: 72 h
YT (IL-2 2.5 ng/mL) [24] = test: as above; settings: 72 h
NK-92 (IL-2 2.5 ng/mL) [25] = test: as above; settings: 72 h
SNK-6 (IL-2 2.5 ng/mL) [26] = test: as above; settings: 72 h
KHYG-1 (IL-2 2.5 ng/mL) [27] = test: as above; settings: 72 h
[28] = system: normal NK cells expanded with K562-aAPC; test: percent inhibition of viability; higher = more inhibition; settings: 72 h, IL-2 2.5 ng/mL
Protocol: as §1

O=C(Cc1ccc(-c2ccc(OCCN3CCOCC3)cc2)cn1)NCc1ccccc1 [KX2-391] (max concentration tested 10000 nM)
percent inhibition of viability [%]
Settings	1 nM	10 nM	100 nM	1000 nM	10000 nM
DERL-7 (IL-2 2.5 ng/mL) [5]	-1.42	5.02	99.3	99.9	98.9
IMC-1 (IL-2 20 ng/mL) [6]	-2.07	-3.69	99.1	100	100
KAI3 (IL-2 2.5 ng/mL) [8]	-3.67	25.5	55.4	76.7	70.3
KHYG-1 (IL-2 2.5 ng/mL) [13]	-5.79	3.13	98.5	107	98.1
NK-92 (IL-2 2.5 ng/mL) [11]	2.97	44	92.2	104	96.8
NK-YS (IL-2 2.5 ng/mL) [1]	-1.95	18.5	69.3	80.8	81.6
NKL (IL-2 2.5 ng/mL) [4]	-12.7	5.97	94.5	96.4	89
SNK-6 (IL-2 2.5 ng/mL) [12]	27.9	54	79.7	91.6	95.2
YT (IL-2 2.5 ng/mL) [10]	-2.25	14.7	95.6	102	95.2
[2]	-14.5	-16.4	1.64	8.22	36.6
[3]	-15.5	-9.53	-0.96	0.59	6.59
[7]	-6.2	-11.1	-5.76	6.08	22.6
[9]	-13.2	-19.8	7.03	7.66	29.1
[28]	-2.89	-0.99	57	55.9	57.5

Settings	drug sensitivity score
DERL-7 (IL-2 2.5 ng/mL) [19]	31.1
IMC-1 (IL-2 20 ng/mL) [20]	30
KAI3 (IL-2 2.5 ng/mL) [22]	23
KHYG-1 (IL-2 2.5 ng/mL) [27]	30.7
NK-92 (IL-2 2.5 ng/mL) [25]	34.8
NK-YS (IL-2 2.5 ng/mL) [15]	25.4
NKL (IL-2 2.5 ng/mL) [18]	30.1
SNK-6 (IL-2 2.5 ng/mL) [26]	34.7
YT (IL-2 2.5 ng/mL) [24]	32
[14]	17.9
[16]	3.06
[17]	0
[21]	1.59
[23]	2.04

Nc1ncn([C@@H]2O[C@H](CO)[C@@H](O)[C@H]2O)c(=O)n1 [Azacitidine] (max concentration tested 10000 nM)
percent inhibition of viability [%]
Settings	1 nM	10 nM	100 nM	1000 nM	10000 nM
DERL-7 (IL-2 2.5 ng/mL) [5]	2.03	3.15	2.51	24.5	85.6
IMC-1 (IL-2 20 ng/mL) [6]	-6.44	-3.39	2.53	-7.92	82.7
KAI3 (IL-2 2.5 ng/mL) [8]	-2.09	-1.87	2.62	26.2	60.5
KHYG-1 (IL-2 2.5 ng/mL) [13]	-4.59	-3.23	2.46	23.2	89.6
NK-92 (IL-2 2.5 ng/mL) [11]	-4.17	-12.4	-0.66	23.1	83.7
NK-YS (IL-2 2.5 ng/mL) [1]	-2.67	-1.33	3.5	15.9	67.6
NKL (IL-2 2.5 ng/mL) [4]	-16.7	-17.1	-14.1	-11.2	65.5
SNK-6 (IL-2 2.5 ng/mL) [12]	-3.1	1	15.7	47.1	67.8
YT (IL-2 2.5 ng/mL) [10]	-1.86	-3.15	-1.98	-0.51	28
[2]	-2.2	-10.3	1.35	9.04	30.6
[3]	-6.45	-3.68	-2.24	-3.82	25.5
[7]	-6.68	-8.85	-5.14	-3.32	29.2
[9]	-3.24	-12.3	5.31	4.81	27.4
[28]	-4.42	-10.9	-6.84	4.72	60.3

Settings	drug sensitivity score
DERL-7 (IL-2 2.5 ng/mL) [19]	8.4
IMC-1 (IL-2 20 ng/mL) [20]	4.03
KAI3 (IL-2 2.5 ng/mL) [22]	6.42
KHYG-1 (IL-2 2.5 ng/mL) [27]	8.51
NK-92 (IL-2 2.5 ng/mL) [25]	8.11
NK-YS (IL-2 2.5 ng/mL) [15]	6.22
NKL (IL-2 2.5 ng/mL) [18]	2.92
SNK-6 (IL-2 2.5 ng/mL) [26]	10.7
YT (IL-2 2.5 ng/mL) [24]	1.12
[14]	4
[16]	2.65
[17]	0.77
[21]	1.04
[23]	1.88

COc1c(C)cnc(Cn2cnc3c(Cl)nc(N)nc32)c1C [BIIB021] (max concentration tested 10000 nM)
percent inhibition of viability [%]
Settings	1 nM	10 nM	100 nM	1000 nM	10000 nM
DERL-7 (IL-2 2.5 ng/mL) [5]	2.38	6.56	62.9	99.9	101
IMC-1 (IL-2 20 ng/mL) [6]	1.18	-3.95	26.6	99.6	101
KAI3 (IL-2 2.5 ng/mL) [8]	-2.5	4.1	75.8	98.8	102
KHYG-1 (IL-2 2.5 ng/mL) [13]	-2.8	-2.89	77.1	99.3	104
NK-92 (IL-2 2.5 ng/mL) [11]	-8.24	-13.2	51.8	95.9	101
NK-YS (IL-2 2.5 ng/mL) [1]	0.34	0.63	61.5	97.2	102
NKL (IL-2 2.5 ng/mL) [4]	-6.72	-10.3	45.6	85.8	86.2
SNK-6 (IL-2 2.5 ng/mL) [12]	19	-3.8	92.6	91	90.3
YT (IL-2 2.5 ng/mL) [10]	-3.19	-0.41	48.3	90.5	94.5
[2]	-3.67	7.97	27.8	79	88
[3]	-13.8	-15	16.2	78.9	87.8
[7]	-9.44	-10.5	39.7	81.5	83.5
[9]	15.4	12.6	10.4	36.1	51
[28]	-1.27	-2.67	62.1	98.6	100

Settings	drug sensitivity score
DERL-7 (IL-2 2.5 ng/mL) [19]	25.7
IMC-1 (IL-2 20 ng/mL) [20]	22
KAI3 (IL-2 2.5 ng/mL) [22]	27.3
KHYG-1 (IL-2 2.5 ng/mL) [27]	26.8
NK-92 (IL-2 2.5 ng/mL) [25]	24.4
NK-YS (IL-2 2.5 ng/mL) [15]	25.3
NKL (IL-2 2.5 ng/mL) [18]	21.3
SNK-6 (IL-2 2.5 ng/mL) [26]	28
YT (IL-2 2.5 ng/mL) [24]	22.8
[14]	25.3
[16]	17.8
[17]	16.6
[21]	20.3
[23]	8.4
